Source: article PMC10633873 (ACS Omega, 2023)
Starred links: 1 amine or outer side, 2 acyl side, 3 side chain; linkers in the order of their positions; H or OH if unused. Positions of bridges follow the written chain, without caps; N, C: chain ends. Non-standard residues stand in square brackets, D forms with d. Residues, ends and D or L forms follow the SMILES beside them. Chains are numbered I, II in the order given. Actinocin(9to1) = Cc1c2oc3c(C)ccc(C(=O)[*:1])c3nc-2c(C(=O)[*:2])c(N)c1=O; NMeV = CN[C@H](C(=O)O)C(C)C; Sar = CNCC(=O)O

Columns and labels:
HEV-RdRp = target: T1, HEV-RdRp (Hepatitis E virus genotype 1, UniProt P33424); assay: HEV-RdRp enzyme activity; assay type: biochemical
T1 sequence (P33424 1207-1693 limits assumed): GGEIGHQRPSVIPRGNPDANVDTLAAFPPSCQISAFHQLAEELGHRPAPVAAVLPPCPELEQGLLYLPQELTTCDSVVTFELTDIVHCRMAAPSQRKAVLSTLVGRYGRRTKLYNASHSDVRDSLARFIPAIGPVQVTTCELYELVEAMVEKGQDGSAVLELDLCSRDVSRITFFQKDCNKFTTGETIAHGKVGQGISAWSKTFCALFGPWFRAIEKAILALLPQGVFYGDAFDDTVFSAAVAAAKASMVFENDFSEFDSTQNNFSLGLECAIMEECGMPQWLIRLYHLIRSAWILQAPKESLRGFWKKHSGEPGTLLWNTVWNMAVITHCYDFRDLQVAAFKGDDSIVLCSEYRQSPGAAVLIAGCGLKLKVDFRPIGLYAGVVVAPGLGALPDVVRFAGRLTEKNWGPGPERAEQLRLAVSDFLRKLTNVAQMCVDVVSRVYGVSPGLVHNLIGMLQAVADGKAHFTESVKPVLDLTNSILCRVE

[1] = Cell viability by MTT assay; assay type: cell-based; conditions: human, Huh7 cells
HEV genotype 3 (pSHEV-3) = assay: Viral RNA copy number by qPCR in Huh7 cells transfected with full-length HEV RNA; assay type: cell-based, Hepatitis E virus; conditions: 5 days post transfection, vs untreated cells
HEV [2] = assay: Immunofluorescence assay of ORF2 expression in HEV RNA-transfected Huh7 cells; assay type: cell-based, Hepatitis E virus; conditions: Huh7, anti-HEV-ORF2, 4–5 days after transfection
HEV [3] = assay: Effect on viral replication; assay type: cell-based, Hepatitis E virus; conditions: concentration and assay not stated

Compound	IC50 (HEV-RdRp)	effect on polymerase activity of HEV-RdRp (HEV-RdRp)	CC50 at 72 h [1]	also measured
NC(=O)c1ncn([C@@H]2O[C@H](CO)[C@@H](O)[C@H]2O)n1 [ribavirin]	3.5 ± 1.6 µM	reduced the polymerase activity	< 100 µM	% reduction of viral RNA (HEV genotype 3 (pSHEV-3); 100 μM): ∼72%
Cc1c2oc3c(C)ccc(C(=O)N[C@@H]4C(=O)N[C@H](C(C)C)C(=O)N5CCC[C@H]5C(=O)N(C)CC(=O)N(C)[C@@H](C(C)C)C(=O)O[C@@H]4C)c3nc-2c(C(=O)N[C@@H]2C(=O)N[C@H](C(C)C)C(=O)N3CCC[C@H]3C(=O)N(C)CC(=O)N(C)[C@@H](C(C)C)C(=O)O[C@@H]2C)c(N)c1=O [actinomycin-D] (I: T[dV]P[Sar][NMeV] / II: T[dV]P[Sar][NMeV]; ester I:1-I:C, II:1-II:C; linker I:N-II:N via Actinocin(9to1))	–	–	–	effect on enzyme activity of RdRp (HEV-RdRp; 5 μM actinomycin-D added to the reaction mixture): no significant effect
CCc1cc(CC[C@]2(C3CCCC3)CC(O)=C(Cc3nc4nc(C)cc(C)n4n3)C(=O)O2)cc(CC)n1 [filibuvir]	–	reduced the polymerase activity	–	–
CC(C)OC(=O)[C@H](C)N[P@](=O)(OC[C@H]1O[C@@H](n2ccc(=O)[nH]c2=O)[C@](C)(F)[C@@H]1O)Oc1ccccc1 [sofosbuvir]	5.2 ± 2.9 µM	reduced the polymerase activity	< 125 µM	% reduction of viral RNA (HEV genotype 3 (pSHEV-3); 125 μM): ∼68%
CCC(CC)COC(=O)[C@H](C)N[P@](=O)(OC[C@H]1O[C@@](C#N)(c2ccc3c(N)ncnn23)[C@H](O)[C@@H]1O)Oc1ccccc1 [remdesivir]	–	did not show any effect	–	–
Nc1nc2c(ncn2[C@@H]2O[C@H](COP(=O)(O)OP(=O)(O)OP(=O)(O)O)[C@@H](O)[C@H]2O)c(=O)[nH]1 [GTP]	–	–	–	Km (HEV-RdRp; GTP varied 0 to 8 mM, 5 μM enzyme, poly(C) 1 μg, Michaelis–Menten fit): 400 µM
NC(=O)c1nc(F)c[nH]c1=O [favipiravir]	10.2 ± 4.9 µM	reduced the polymerase activity	< 500 µM	effect on HEV replication (ORF2 mean fluorescence intensity) (HEV [2]): significantly inhibited HEV replication
Nc1ccn([C@@H]2CS[C@H](CO)O2)c(=O)n1 [lamivudine]	–	–	–	effect on in vitro enzyme activity of HEV-RdRp (HEV-RdRp; concentration not given): inhibited; effect on viral replication (HEV [3]): did not show any effect
